{
  "source": "patent US8497385B2",
  "about": "“Bryostatin analogues, synthetic methods and uses” (The Board of Trustees of the Leland Stanford Junior …, priority 2007, dated 2013)",
  "assay_type_in_all_cases": "cell-based, human",
  "key": {"IGROVI": {"system": "IGROVI", "assay": "NCI growth inhibition, IGROVI (Ovarian)"}, "ACHN": {"system": "ACHN", "assay": "NCI growth inhibition, ACHN (Renal)"}, "OVCAR-3": {"system": "OVCAR-3", "assay": "NCI growth inhibition, OVCAR-3 (Ovarian)"}, "OVCAR-4": {"system": "OVCAR-4", "assay": "NCI growth inhibition, OVCAR-4 (Ovarian)"}, "UO-31": {"system": "UO-31", "assay": "NCI growth inhibition, UO-31 (Renal)"}, "SNB-19": {"system": "SNB-19", "assay": "NCI growth inhibition, SNB-19 (CNS)"}, "SW-620": {"system": "SW-620", "assay": "NCI growth inhibition, SW-620 (Colon)"}, "KM12": {"system": "KM12", "assay": "NCI growth inhibition, KM12 (Colon)"}, "SK-MEL-5": {"system": "SK-MEL-5", "assay": "NCI growth inhibition, SK-MEL-5 (Melanoma)"}, "CAKI-1": {"system": "CAKI-1", "assay": "NCI growth inhibition, CAKI-1 (Renal)"}, "NCI-H460": {"system": "NCI-H460", "assay": "NCI growth inhibition, NCI-H460 (NSC Lung)"}, "UACC-62": {"system": "UACC-62", "assay": "NCI growth inhibition, UACC-62 (Melanoma)"}, "MI4": {"system": "MI4", "assay": "NCI growth inhibition, MI4 (Melanoma)"}, "HOP-92": {"system": "HOP-92", "assay": "NCI growth inhibition, HOP-92 (NSC Lung)"}, "SF-268": {"system": "SF-268", "assay": "NCI growth inhibition, SF-268 (CNS)"}, "TK-10": {"system": "TK-10", "assay": "NCI growth inhibition, TK-10 (Renal)"}, "U251": {"system": "U251", "assay": "NCI growth inhibition, U251 (CNS)"}, "DU-145": {"system": "DU-145", "assay": "NCI growth inhibition, DU-145 (Prostate)"}, "SN12C": {"system": "SN12C", "assay": "NCI growth inhibition, SN12C (Renal)"}, "HOP-62": {"system": "HOP-62", "assay": "NCI growth inhibition, HOP-62 (NSC Lung)"}, "SR": {"system": "SR", "assay": "NCI growth inhibition, SR (Leukemia)"}, "HCT-15": {"system": "HCT-15", "assay": "NCI growth inhibition, HCT-15 (Colon)"}, "MDA-MB-231/ATCC": {"system": "MDA-MB-231/ATCC", "assay": "NCI growth inhibition, MDA-MB-231/ATCC (Breast)"}, "K-562": {"system": "K-562", "assay": "NCI growth inhibition, K-562 (Leukemia)"}, "UACC-257": {"system": "UACC-257", "assay": "NCI growth inhibition, UACC-257 (Melanoma)"}},
  "data": [
    {"smiles": "CCCCCCCC(=O)OC1C(=CC(=O)OC)CC2CC(CO)OC(=O)CC(O)CC3CCCC(CC4CCOC(C=CC(C)(C)C1(O)O2)O4)O3", "note": "(stereo not drawn) [Formula IIa (702.1)]", "values": [
      {"measurement": "Difference of GI50 (log), Desmethyl vs Bryo-1", "setting": "IGROVI", "result": 0.42},
      {"measurement": "GI50", "setting": "IGROVI; Ovarian", "result": "−4.88 log of molar concentration"},
      {"measurement": "Difference of GI50 (log), Desmethyl vs Bryo-1", "setting": "ACHN", "result": "−0.44"},
      {"measurement": "GI50", "setting": "ACHN; Renal", "result": "−5.94 log of molar concentration"},
      {"measurement": "Difference of GI50 (log), Desmethyl vs Bryo-1", "setting": "OVCAR-3; OVCAR-3", "result": 0.27},
      {"measurement": "GI50", "setting": "OVCAR-3; OVCAR-3, Ovarian", "result": "−4.83 log of molar concentration"},
      {"measurement": "Difference of GI50 (log), Desmethyl vs Bryo-1", "setting": "OVCAR-4; OVCAR-4", "result": 0.35},
      {"measurement": "GI50", "setting": "OVCAR-4; OVCAR-4, Ovarian", "result": "−5.15 log of molar concentration"},
      {"measurement": "Difference of GI50 (log), Desmethyl vs Bryo-1", "setting": "UO-31; UO-31", "result": 0.75},
      {"measurement": "GI50", "setting": "UO-31; UO-31, Renal", "result": "−4.85 log of molar concentration"},
      {"measurement": "Difference of GI50 (log), Desmethyl vs Bryo-1", "setting": "SNB-19; SNB-19", "result": "−0.20"},
      {"measurement": "GI50", "setting": "SNB-19; SNB-19, CNS", "result": "−5.2 log of molar concentration"},
      {"measurement": "Difference of GI50 (log), Desmethyl vs Bryo-1", "setting": "SW-620; SW-620", "result": 0.38},
      {"measurement": "GI50", "setting": "SW-620; SW-620, Colon", "result": "−5.12 log of molar concentration"},
      {"measurement": "Difference of GI50 (log), Desmethyl vs Bryo-1", "setting": "KM12; KM12", "result": "−0.14"},
      {"measurement": "GI50", "setting": "KM12; KM12, Colon", "result": "−5.34 log of molar concentration"},
      {"measurement": "Difference of GI50 (log), Desmethyl vs Bryo-1", "setting": "SK-MEL-5; SK-MEL-5", "result": "−0.73"},
      {"measurement": "GI50", "setting": "SK-MEL-5; SK-MEL-5, Melanoma", "result": "−6.43 log of molar concentration"},
      {"measurement": "Difference of GI50 (log), Desmethyl vs Bryo-1", "setting": "CAKI-1; CAKI-1", "result": "−0.30"},
      {"measurement": "GI50", "setting": "CAKI-1; CAKI-1, Renal", "result": "−5.7 log of molar concentration"},
      {"measurement": "Difference of GI50 (log), Desmethyl vs Bryo-1", "setting": "NCI-H460; NCI-H460", "result": "−2.40"},
      {"measurement": "GI50", "setting": "NCI-H460; NCI-H460, NSC Lung", "result": "<−8 log of molar concentration"},
      {"measurement": "more active than bryostatin-1", "setting": "NCI-H460; NCI-H460, NSC Lung", "result": "more than 2 orders of magnitude"},
      {"measurement": "Difference of GI50 (log), Desmethyl vs Bryo-1", "setting": "UACC-62; UACC-62", "result": 0.19},
      {"measurement": "GI50", "setting": "UACC-62; UACC-62, Melanoma", "result": "−5.11 log of molar concentration"},
      {"measurement": "Difference of GI50 (log), Desmethyl vs Bryo-1", "setting": "MI4; MI4", "result": "−0.26"},
      {"measurement": "GI50", "setting": "MI4; MI4, Melanoma", "result": "−5.26 log of molar concentration"},
      {"measurement": "Difference of GI50 (log), Desmethyl vs Bryo-1", "setting": "HOP-92; HOP-92", "result": 0.63},
      {"measurement": "GI50", "setting": "HOP-92; HOP-92, NSC Lung", "result": "−4.67 log of molar concentration"},
      {"measurement": "Difference of GI50 (log), Desmethyl vs Bryo-1", "setting": "SF-268; SF-268", "result": 0.13},
      {"measurement": "GI50", "setting": "SF-268; SF-268, CNS", "result": "−4.97 log of molar concentration"},
      {"measurement": "Difference of GI50 (log), Desmethyl vs Bryo-1", "setting": "TK-10; TK-10", "result": "−2.03"},
      {"measurement": "GI50", "setting": "TK-10; TK-10, Renal", "result": "−7.03 log of molar concentration"},
      {"measurement": "more active than bryostatin-1", "setting": "TK-10; TK-10, Renal", "result": "more than 2 orders of magnitude"},
      {"measurement": "Difference of GI50 (log), Desmethyl vs Bryo-1", "setting": "U251; U251", "result": "−0.30"},
      {"measurement": "GI50", "setting": "U251; U251, CNS", "result": "−5.4 log of molar concentration"},
      {"measurement": "Difference of GI50 (log), Desmethyl vs Bryo-1", "setting": "DU-145; DU-145", "result": "−0.02"},
      {"measurement": "GI50", "setting": "DU-145; DU-145, Prostate", "result": "−5.02 log of molar concentration"},
      {"measurement": "Difference of GI50 (log), Desmethyl vs Bryo-1", "setting": "SN12C", "result": "−0.49"},
      {"measurement": "GI50", "setting": "SN12C; Renal", "result": "−5.59 log of molar concentration"},
      {"measurement": "GI50", "setting": "HOP-62", "result": "−4.79 log of molar concentration"},
      {"measurement": "Difference of GI50 (log), Desmethyl vs Bryo-1", "setting": "SR", "result": "−0.10"},
      {"measurement": "GI50", "setting": "SR; Leukemia", "result": "−5.1 log of molar concentration"},
      {"measurement": "GI50", "setting": "HCT-15", "result": "−4.76 log of molar concentration"},
      {"measurement": "Difference of GI50 (log), Desmethyl vs Bryo-1", "setting": "MDA-MB-231/ATCC", "result": "−0.49"},
      {"measurement": "GI50", "setting": "MDA-MB-231/ATCC; Breast", "result": "−5.69 log of molar concentration"},
      {"measurement": "Difference of GI50 (log), Desmethyl vs Bryo-1", "setting": "K-562; K-562", "result": "−2.10"},
      {"measurement": "GI50", "setting": "K-562; K-562, Leukemia", "result": "−7.5 log of molar concentration"},
      {"measurement": "more active than bryostatin-1", "setting": "K-562; K-562, Leukemia", "result": "more than 2 orders of magnitude"},
      {"measurement": "Difference of GI50 (log), Desmethyl vs Bryo-1", "setting": "UACC-257; UACC-257", "result": "−0.03"},
      {"measurement": "GI50", "setting": "UACC-257; UACC-257, Melanoma", "result": "−5.13 log of molar concentration"}
    ]}
  ]
}
